Assay results as given in US10112935B2, “Indazolyl thiadiazolamines and related compounds for inhibition of Rho-associated protein kinase and the treatment of disease” (Lycera Corporation, priority 2015, dated 2018).

Columns and labels:
[1] = molecular target: GST-tagged human ROCK2 catalytic domain 1-553 (Homo sapiens (Human), UniProt O75116); test: Inhibition of Rho-associated protein kinase isoform 2 (LANCE Ultra ULight-CREBtide FRET kinase assay); assay type: biochemical; conditions: for IC50: 30 μM was the highest concentration analyzed; for Selectivity for ROCK2 over ROCK1 (IC50 ROCK1 / IC50 ROCK2): selectivity ROCK2 vs ROCK1
Procedure, shortened: (§1)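 Baculovirus-expressed kinase phosphorylated ULight-CREBtide for 90 min at room temperature before the reaction was stopped with 10 mM EDTA. Phospho-substrate was detected by TR-FRET with 1 nM Europium-anti-phospho-CREB (Ser133) antibody after 60 min at room temperature.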

[2] = molecular target: GST-tagged human ROCK1 catalytic domain 1-477 (Homo sapiens (Human), UniProt Q13464); test: Inhibition of Rho-associated protein kinase isoform 1 (LANCE Ultra ULight-CREBtide FRET kinase assay); assay type: biochemical; conditions: 30 μM was the highest concentration analyzed
Procedure, shortened: as §1

[3] = test system: ROCK; conditions: rat stroke model; cited from earlier work
[4] = test system: ROCK; conditions: porcine, IL-1 beta-induced; cited from earlier work

GST-tagged human ROCK2 catalytic domain 1-553, sequence (O75116 1-553): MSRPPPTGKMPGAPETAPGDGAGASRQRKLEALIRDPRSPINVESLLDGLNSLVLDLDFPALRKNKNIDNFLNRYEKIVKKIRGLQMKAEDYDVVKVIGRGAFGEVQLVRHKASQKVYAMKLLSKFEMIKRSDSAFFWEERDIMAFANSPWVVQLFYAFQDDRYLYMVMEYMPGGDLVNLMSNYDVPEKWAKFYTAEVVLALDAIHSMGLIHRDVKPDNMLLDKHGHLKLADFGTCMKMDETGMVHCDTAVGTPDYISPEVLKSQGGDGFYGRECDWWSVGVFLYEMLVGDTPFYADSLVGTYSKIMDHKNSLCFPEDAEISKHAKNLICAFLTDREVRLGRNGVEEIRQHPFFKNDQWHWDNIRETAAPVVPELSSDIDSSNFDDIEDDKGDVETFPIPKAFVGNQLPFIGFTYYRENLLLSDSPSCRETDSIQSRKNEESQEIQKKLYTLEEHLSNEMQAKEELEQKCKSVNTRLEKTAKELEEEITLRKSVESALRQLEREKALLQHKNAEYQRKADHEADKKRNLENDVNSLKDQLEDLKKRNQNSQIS
GST-tagged human ROCK1 catalytic domain 1-477, sequence (Q13464 1-477): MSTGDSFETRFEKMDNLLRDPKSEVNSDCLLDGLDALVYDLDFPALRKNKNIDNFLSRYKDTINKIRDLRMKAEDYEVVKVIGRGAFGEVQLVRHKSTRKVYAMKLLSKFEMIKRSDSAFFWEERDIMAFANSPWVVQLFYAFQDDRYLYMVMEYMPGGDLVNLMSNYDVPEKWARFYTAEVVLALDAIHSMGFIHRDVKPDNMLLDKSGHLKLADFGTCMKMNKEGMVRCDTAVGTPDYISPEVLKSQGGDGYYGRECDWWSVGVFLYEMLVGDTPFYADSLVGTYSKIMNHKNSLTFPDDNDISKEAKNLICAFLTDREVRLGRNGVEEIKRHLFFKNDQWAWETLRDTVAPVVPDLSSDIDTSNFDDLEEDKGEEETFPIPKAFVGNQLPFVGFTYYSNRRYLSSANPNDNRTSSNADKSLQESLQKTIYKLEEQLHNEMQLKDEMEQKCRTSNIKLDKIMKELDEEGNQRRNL

Row | Compound | IC50 [1] [µM] | Selectivity for ROCK2 over ROCK1 (IC50 ROCK1 / IC50 ROCK2) [1] | IC50 [2] [µM] | infarct size and neurologic deficit [3] | coronary stenosis [4]
1 | c1cc2[nH]ncc2cc1Nc1nnc(C2CNCCN2)s1 (centres unmarked) [Example A-29] | 1 to 15 | <5 | 1 to 15 | – | –
2 | c1cc(-c2ncco2)cc(-c2nnc(Nc3ccc4[nH]ncc4c3)s2)c1 [Example A-30] | < 1 | >100 | > 30 | – | –
3 | O=C(Nc1cccc(-c2nnc(Nc3ccc4[nH]ncc4c3)s2)n1)c1c[nH]cn1 [Example A-31] | < 1 | >100 | > 30 | – | –
4 | O=C(Nc1cc(-c2nnc(Nc3ccc4[nH]ncc4c3)s2)ccn1)c1c[nH]cn1 [Example A-32] | < 1 | >100 | > 30 | – | –
5 | c1cc2[nH]ncc2cc1Nc1nnc(C2CCCNC2)s1 (centres unmarked) [Example A-33] | 1 to 15 | <5 | 15 to 30 | – | –
6 | COc1cccc(-c2nnc(Nc3ccc4[nH]ncc4c3)s2)c1 [Example A-34] | < 1 | >100 | > 30 | – | –
7 | NC1CCN(C(=O)Nc2cccc(-c3nnc(Nc4ccc5[nH]ncc5c4)s3)c2)C1 (centres unmarked) [Example A-35] | < 1 | <5 | 1 to 15 | – | –
8 | O=C(c1ccnnc1)N1CCN(c2nnc(Nc3ccc4[nH]ncc4c3)s2)CC1 [Example A-36] | 1 to 15 | >5 | > 30 | – | –
9 | O=C(Nc1cncc(-c2nnc(Nc3ccc4[nH]ncc4c3)s2)c1)c1c[nH]cn1 [Example A-37] | < 1 | >100 | > 30 | – | –
10 | N[C@@H]1CCN(c2nnc(Nc3ccc4[nH]ncc4c3)s2)C1 [Example A-38] | 1 to 15 | <5 | 1 to 15 | – | –
11 | Cc1cc(C(=O)Nc2cccc(-c3nnc(Nc4ccc5[nH]ncc5c4)s3)c2)[nH]n1 [Example A-39] | < 1 | >5 | 1 to 15 | – | –
12 | Cc1cc(C(=O)Nc2cccc(-c3nnc(Nc4ccc5[nH]ncc5c4)s3)c2)no1 [Example A-40] | < 1 | >100 | > 30 | – | –
13 | Cn1cc(C(=O)Nc2cccc(-c3nnc(Nc4ccc5[nH]ncc5c4)s3)c2)cn1 [Example A-41] | < 1 | >100 | > 30 | – | –
14 | Cn1ccc(C(=O)Nc2cccc(-c3nnc(Nc4ccc5[nH]ncc5c4)s3)c2)n1 [Example A-42] | < 1 | >5 | < 1 | – | –
15 | Cn1nccc1C(=O)Nc1cccc(-c2nnc(Nc3ccc4[nH]ncc4c3)s2)c1 [Example A-43] | < 1 | >100 | > 30 | – | –
16 | Cc1cnoc1C(=O)Nc1cccc(-c2nnc(Nc3ccc4[nH]ncc4c3)s2)c1 [Example A-44] | < 1 | >100 | > 30 | – | –
17 | O=[N+]([O-])c1cccc(-c2nnc(Nc3ccc4[nH]ncc4c3)s2)c1 [Example A-45] | 1 to 15 | <5 | 1 to 15 | – | –
18 | O=C(Nc1cccc(-c2nnc(Nc3ccc4[nH]ncc4c3)s2)c1)c1cn[nH]c1 [Example A-46] | < 1 | >100 | > 30 | – | –
19 | Nc1cccc(-c2nnc(Nc3ccc4[nH]ncc4c3)s2)c1 [Example A-47] | 1 to 15 | >5 | > 30 | – | –
20 | c1cc2[nH]ncc2cc1Nc1nnc(N2CCNCC2)s1 [Example A-48] | 1 to 15 | <5 | 1 to 15 | – | –
21 | O=C(Nc1cccc(-c2nnc(Nc3ccc4[nH]ncc4c3)s2)c1)c1c[nH]cn1 [Example A-49] | < 1 | >100 | > 30 | – | –
22 | O=C(Nc1cccc(-c2nnc(Nc3ccc4[nH]ncc4c3)s2)c1)c1cccnc1 [Example A-50] | < 1 | >100 | > 30 | – | –
23 | O=S(=O)(c1cccc2cnccc12)N1CCCNCC1 [fasudil] | – | – | – | reduce both the infarct size and neurologic deficit | progressively reduce coronary stenosis
